Results: the supplement of paper PMC10307832

Assays:
Assay in all cases: relative viability (nuclei count vs DMSO), 5 days (fraction); higher = more cells survive
NCI-H322M = system: NCI-H322M
Procedure, shortened: (§1)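 Cells from lung cancer lines were seeded into 1536-well plates and, one day later, dosed by pin tool. Treatments were either a single drug or a fixed dose of an anchor drug with five library-drug doses (not always all listed) in √10 steps. After 5 days, nuclei were stained in a one-step fixation (final 0.05% Triton X-100, 1% formaldehyde, 1 ug/ml Hoechst) and counted on 4× images, and relative viability is the treated-to-vehicle nuclei ratio, as the median of duplicate plates.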

SK-LU-1 = system: SK-LU-1
Procedure, shortened: as §1

EKVX = system: EKVX
Procedure, shortened: as §1

EPLC-272H = system: EPLC-272H
Procedure, shortened: as §1

NCI-H2126 = system: NCI-H2126
Procedure, shortened: as §1

NCI-H23 = system: NCI-H23
Procedure, shortened: as §1

EMC-BAC-2 = system: EMC-BAC-2
Procedure, shortened: as §1

PC-14 = system: PC-14
Procedure, shortened: as §1

LK-2 = system: LK-2
Procedure, shortened: as §1

NCI-H2405 = system: NCI-H2405
Procedure, shortened: as §1

HCC-827 = system: HCC-827
Procedure, shortened: as §1

NCI-H1975 = system: NCI-H1975
Procedure, shortened: as §1

RERF-LC-KJ = system: RERF-LC-KJ
Procedure, shortened: as §1

HCC-78 = system: HCC-78
Procedure, shortened: as §1

NCI-H1666 = system: NCI-H1666
Procedure, shortened: as §1

NCI-H1563 = system: NCI-H1563
Procedure, shortened: as §1

SW 1573 = system: SW 1573
Procedure, shortened: as §1

LU99A = system: LU99A
Procedure, shortened: as §1

Q: `Nc1ccn([C@@H]2O[C@H](CO)[C@@H](O)[C@@H]2O)c(=O)n1` [Cytarabine] + CS(=O)(=O)CCNCc1ccc(-c2ccc3ncnc(Nc4ccc(OCc5cccc(F)c5)c(Cl)c4)c3c2)o1 [Lapatinib] (partner 2 µM) was tested. Which relative viability (NCI-H322M; first compound 0.005 µM) did it give?
A: Its relative viability is 0.585.

Q: What about the relative viability (NCI-H322M; first compound 0.01581 µM) of the same compound?
A: Its relative viability is 0.609.

Q: And the relative viability (NCI-H322M; first compound 0.05 µM)?
A: Its relative viability is 0.459.

Q: And the relative viability (NCI-H322M; first compound 0.1581 µM)?
A: Its relative viability is 0.354.

Q: What about the relative viability (NCI-H322M; first compound 0.5 µM) of the same compound?
A: The relative viability was 0.348.

Q: What about the relative viability (SK-LU-1; first compound 0.005 µM) of the same compound?
A: Its relative viability is 0.659.

Q: And the relative viability (SK-LU-1; first compound 0.01581 µM)?
A: The relative viability was 0.744.

Q: And the relative viability (SK-LU-1; first compound 0.05 µM)?
A: The relative viability was 0.697.

Q: And the relative viability (SK-LU-1; first compound 0.1581 µM)?
A: The relative viability was 0.345.

Q: And the relative viability (SK-LU-1; first compound 0.5 µM)?
A: The relative viability was 0.467.

Q: What about the relative viability (EKVX; first compound 0.005 µM) of the same compound?
A: Its relative viability is 0.225.

Q: What about the relative viability (EKVX; first compound 0.01581 µM) of the same compound?
A: The relative viability was 0.18.

Q: What about the relative viability (EKVX; first compound 0.05 µM) of the same compound?
A: The relative viability was 0.153.

Q: And the relative viability (EKVX; first compound 0.1581 µM)?
A: Its relative viability is 0.138.

Q: What about the relative viability (EKVX; first compound 0.5 µM) of the same compound?
A: The relative viability was 0.112.

Q: What about the relative viability (EPLC-272H; first compound 0.005 µM) of the same compound?
A: The relative viability was 0.717.

Q: What about the relative viability (EPLC-272H; first compound 0.01581 µM) of the same compound?
A: The relative viability was 0.756.

Q: What about the relative viability (EPLC-272H; first compound 0.05 µM) of the same compound?
A: The relative viability was 0.592.

Q: What about the relative viability (EPLC-272H; first compound 0.1581 µM) of the same compound?
A: Its relative viability is 0.315.

Q: And the relative viability (EPLC-272H; first compound 0.5 µM)?
A: The relative viability was 0.417.

Q: And the relative viability (NCI-H2126; first compound 0.005 µM)?
A: The relative viability was 0.73.

Q: What about the relative viability (NCI-H2126; first compound 0.01581 µM) of the same compound?
A: The relative viability was 0.701.

Q: And the relative viability (NCI-H2126; first compound 0.05 µM)?
A: The relative viability was 0.61.

Q: And the relative viability (NCI-H2126; first compound 0.1581 µM)?
A: The relative viability was 0.516.

Q: What about the relative viability (NCI-H2126; first compound 0.5 µM) of the same compound?
A: The relative viability was 0.449.

Q: And the relative viability (NCI-H23; first compound 0.005 µM)?
A: Its relative viability is 0.974.

Q: And the relative viability (NCI-H23; first compound 0.01581 µM)?
A: Its relative viability is 0.636.

Q: What about the relative viability (NCI-H23; first compound 0.05 µM) of the same compound?
A: Its relative viability is 0.734.

Q: What about the relative viability (NCI-H23; first compound 0.1581 µM) of the same compound?
A: Its relative viability is 0.203.

Q: What about the relative viability (NCI-H23; first compound 0.5 µM) of the same compound?
A: The relative viability was 0.165.

Q: What about the relative viability (EMC-BAC-2; first compound 0.005 µM) of the same compound?
A: Its relative viability is 0.857.

Q: What about the relative viability (EMC-BAC-2; first compound 0.01581 µM) of the same compound?
A: The relative viability was 0.85.

Q: What about the relative viability (EMC-BAC-2; first compound 0.05 µM) of the same compound?
A: Its relative viability is 0.763.

Q: And the relative viability (EMC-BAC-2; first compound 0.1581 µM)?
A: The relative viability was 0.283.

Q: What about the relative viability (EMC-BAC-2; first compound 0.5 µM) of the same compound?
A: The relative viability was 0.287.

Q: What about the relative viability (PC-14; first compound 0.005 µM) of the same compound?
A: Its relative viability is 0.282.

Q: What about the relative viability (PC-14; first compound 0.01581 µM) of the same compound?
A: Its relative viability is 0.236.

Q: What about the relative viability (PC-14; first compound 0.05 µM) of the same compound?
A: The relative viability was 0.273.

Q: And the relative viability (PC-14; first compound 0.1581 µM)?
A: The relative viability was 0.17.

Q: What about the relative viability (PC-14; first compound 0.5 µM) of the same compound?
A: The relative viability was 0.221.

Q: What about the relative viability (LK-2; first compound 0.005 µM) of the same compound?
A: Its relative viability is 0.627.

Q: And the relative viability (LK-2; first compound 0.01581 µM)?
A: The relative viability was 0.479.

Q: And the relative viability (LK-2; first compound 0.05 µM)?
A: Its relative viability is 0.395.

Q: What about the relative viability (LK-2; first compound 0.1581 µM) of the same compound?
A: Its relative viability is 0.248.

Q: And the relative viability (LK-2; first compound 0.5 µM)?
A: Its relative viability is 0.283.

Q: What about the relative viability (NCI-H2405; first compound 0.005 µM) of the same compound?
A: The relative viability was 0.937.

Q: And the relative viability (NCI-H2405; first compound 0.01581 µM)?
A: Its relative viability is 0.698.

Q: What about the relative viability (NCI-H2405; first compound 0.05 µM) of the same compound?
A: The relative viability was 0.637.

Q: And the relative viability (NCI-H2405; first compound 0.1581 µM)?
A: Its relative viability is 0.483.

Q: And the relative viability (NCI-H2405; first compound 0.5 µM)?
A: Its relative viability is 0.294.

Q: And the relative viability (HCC-827; first compound 0.005 µM)?
A: The relative viability was 0.192.

Q: What about the relative viability (HCC-827; first compound 0.01581 µM) of the same compound?
A: The relative viability was 0.16.

Q: And the relative viability (HCC-827; first compound 0.05 µM)?
A: Its relative viability is 0.141.

Q: And the relative viability (HCC-827; first compound 0.1581 µM)?
A: Its relative viability is 0.136.

Q: And the relative viability (HCC-827; first compound 0.5 µM)?
A: Its relative viability is 0.125.

Q: What about the relative viability (NCI-H1975; first compound 0.005 µM) of the same compound?
A: Its relative viability is 0.644.

Q: And the relative viability (NCI-H1975; first compound 0.01581 µM)?
A: The relative viability was 1.05.

Q: What about the relative viability (NCI-H1975; first compound 0.05 µM) of the same compound?
A: The relative viability was 1.09.

Q: And the relative viability (NCI-H1975; first compound 0.1581 µM)?
A: The relative viability was 0.456.

Q: What about the relative viability (NCI-H1975; first compound 0.5 µM) of the same compound?
A: Its relative viability is 0.372.

Q: And the relative viability (RERF-LC-KJ; first compound 0.005 µM)?
A: The relative viability was 0.885.

Q: And the relative viability (RERF-LC-KJ; first compound 0.01581 µM)?
A: The relative viability was 0.751.

Q: And the relative viability (RERF-LC-KJ; first compound 0.05 µM)?
A: Its relative viability is 0.892.

Q: What about the relative viability (RERF-LC-KJ; first compound 0.1581 µM) of the same compound?
A: Its relative viability is 0.569.

Q: What about the relative viability (RERF-LC-KJ; first compound 0.5 µM) of the same compound?
A: Its relative viability is 0.47.

Q: And the relative viability (HCC-78; first compound 0.005 µM)?
A: The relative viability was 0.799.

Q: What about the relative viability (HCC-78; first compound 0.01581 µM) of the same compound?
A: Its relative viability is 0.595.

Q: What about the relative viability (HCC-78; first compound 0.05 µM) of the same compound?
A: The relative viability was 0.353.

Q: And the relative viability (HCC-78; first compound 0.1581 µM)?
A: Its relative viability is 0.308.

Q: What about the relative viability (HCC-78; first compound 0.5 µM) of the same compound?
A: The relative viability was 0.19.

Q: What about the relative viability (NCI-H1666; first compound 0.005 µM) of the same compound?
A: Its relative viability is 0.455.

Q: And the relative viability (NCI-H1666; first compound 0.01581 µM)?
A: Its relative viability is 0.549.

Q: And the relative viability (NCI-H1666; first compound 0.05 µM)?
A: The relative viability was 0.378.

Q: What about the relative viability (NCI-H1666; first compound 0.1581 µM) of the same compound?
A: The relative viability was 0.308.

Q: What about the relative viability (NCI-H1666; first compound 0.5 µM) of the same compound?
A: Its relative viability is 0.262.

Q: What about the relative viability (NCI-H1563; first compound 0.005 µM) of the same compound?
A: The relative viability was 0.935.

Q: And the relative viability (NCI-H1563; first compound 0.01581 µM)?
A: The relative viability was 0.859.

Q: What about the relative viability (NCI-H1563; first compound 0.05 µM) of the same compound?
A: The relative viability was 0.497.

Q: What about the relative viability (NCI-H1563; first compound 0.1581 µM) of the same compound?
A: The relative viability was 0.926.

Q: What about the relative viability (NCI-H1563; first compound 0.5 µM) of the same compound?
A: Its relative viability is 0.708.

Q: What about the relative viability (SW 1573; first compound 0.005 µM) of the same compound?
A: Its relative viability is 1.17.

Q: What about the relative viability (SW 1573; first compound 0.01581 µM) of the same compound?
A: The relative viability was 0.879.

Q: What about the relative viability (SW 1573; first compound 0.05 µM) of the same compound?
A: Its relative viability is 0.952.

Q: And the relative viability (SW 1573; first compound 0.1581 µM)?
A: The relative viability was 0.606.

Q: And the relative viability (SW 1573; first compound 0.5 µM)?
A: The relative viability was 0.329.

Q: What about the relative viability (LU99A; first compound 0.005 µM) of the same compound?
A: Its relative viability is 0.974.

Q: And the relative viability (LU99A; first compound 0.01581 µM)?
A: Its relative viability is 0.968.

Q: And the relative viability (LU99A; first compound 0.05 µM)?
A: The relative viability was 1.02.

Q: And the relative viability (LU99A; first compound 0.1581 µM)?
A: Its relative viability is 0.988.

Q: And the relative viability (LU99A; first compound 0.5 µM)?
A: The relative viability was 0.938.
